A value given as a limit tells only on which side of the number the result lay.

The term inhibition denotes the percentage by which the read-out fell short of the control.

The subject of this assay is SCD1 expression. In words: Inhibition assay: qPCR of SCD1 expression in HepG2 cells (Biological Example 1). In kind it is cell-based. Particulars: Homo sapiens, 24 hours; for inhibition at 1 µM: read-out: Inhibition Percentage (%) 1 μM (SCD1 expression); for inhibition at 10 µM: read-out: Inhibition Percentage (%) 10 μM (SCD1 expression). Here is the method:
HepG2 cells were grown in Dulbecco's Modified Eagle Medium (DMEM) containing 5% FBS and antibiotic-antimycotic in a humidified incubator at 37° C. with 5% CO2. All three components were purchased from ThermoFisher Scientific (Catalog numbers are 11995073, 26140079, and 15240062, respectively). Treatments were done in duplicates for each dose of each compound. For control and treated each treatment, 400,000 HepG2 cells were seeded onto 1 well of 24-well plate. After one day in culture, cells were treated with the test compound (1 μM and/or 10 μM, as indicated below in Table 1) for 24 hours in DMEM with 5% FBS. Compounds were diluted using DMSO from 20 mM stocks. Total RNAs were extracted using RNA extraction kit (Cat #: 45001163, Fisher Scientific) or Trizol. If Trizol was used, RNAs were treated with DNase I (cat #: 18068015, ThermoFisher Scientific) before qPCR. RNA concentrations were measured on a Nanodrop. One-step qPCR were performed using SYBR Green One Step qPCR Kit (Cat #: B25002, Biotool). 10 ng RNA was used in each 10-ul reaction. Triplicate reactions were done for each RNA sample. qPCR was performed on an ABI StepOnePlus using the program: Holding stage step 1, 50° C. 3 min, step 2, 95° C. 5 min; Cycling stage (40 cycles) step 1, 95° C. 10 sec, step 2, 60° C. 30 sec. Primer sequence was as follows: SCD1, 5′-[…]-3′/5′-[…]-3′.
All data was measured in HepG2 cells. % inhibition data of SCD1 expression are provided in Table 1. % inhibition at 10 μM is provided as follows: A≥75%; 75%>B≥50%; 50%>C≥10%. % inhibition at 1 μM is provided as follows: A1≥30%; 30%>B1≥2%. NI means no inhibition in the assay at the indicated concentration of compound tested. NT means not tested.

As to `CCCc1cc(-n2cc(-c3ncc(NC4CCCC4)cc3Cl)cn2)ccn1` [Example 25, 5-chloro-N-cyclopentyl-6-(1-(2-propylpyridin-4-yl)-1H-pyrazol-4-yl)pyridin-3-amine], the inhibition at 1 µM is not below 30% and the inhibition at 10 µM was more than 75%.

Consider `CCCc1cc(-n2cc(-c3ccc(NC4CCC4)nc3)c(C)n2)ccn1` [Example 57, N-cyclobutyl-5-(3-methyl-1-(2-propylpyridin-4-yl)-1H-pyrazol-4-yl)pyridin-2-amine], for which the inhibition at 1 µM was in the range of 2 to 30% and the inhibition at 10 µM was more than 75%.

In the case of `CCCc1cc(-n2cc(-c3ncc(NCC4CC4)cc3Cl)cn2)ccn1` [Example 27, 5-chloro-N-(cyclopropylmethyl)-6-(1-(2-propylpyridin-4-yl)-1H-pyrazol-4-yl)pyridin-3-amine], the inhibition at 1 µM is not below 30% and the inhibition at 10 µM was more than 75%.

For the molecule `CCCc1cc(-n2cc(-c3ccc(NS(=O)(=O)C(F)(F)F)cc3Cl)cn2)ccn1` [Example 11, N-(3-chloro-4-(1-(2-propylpyridin-4-yl)-1H-pyrazol-4-yl)phenyl)-1,1,1-trifluoromethanesulfonamide], the inhibition at 10 µM is 10 to 50%. Turning to `CCCc1cc(-n2cc(-c3ccc(NC4CCC4)nc3)cn2)ccn1` [Example 33, N-cyclobutyl-5-(1-(2-propylpyridin-4-yl)-1H-pyrazol-4-yl)pyridin-2-amine], the inhibition at 1 µM was not below 30% and the inhibition at 10 µM is more than 75%. For `CCCc1cc(-n2cc(-c3ccc(NC4CCCC4)cn3)cn2)ccn1` [Example 23, N-cyclopentyl-6-(1-(2-propylpyridin-4-yl)-1H-pyrazol-4-yl)pyridin-3-amine], the inhibition at 1 µM was in the range of 2 to 30% and the inhibition at 10 µM was more than 75%. As to `CCCc1cc(-n2nc(C)c(-c3ccc(NCC4CC4)nc3)c2C)ccn1` [Example 35, N-(cyclopropylmethyl)-5-(3,5-dimethyl-1-(2-propylpyridin-4-yl)-1H-pyrazol-4-yl)pyridin-2-amine], the inhibition at 1 µM was in the range of 2 to 30% and the inhibition at 10 µM is 50 to 75%. For the molecule `CCCc1cc(-n2cc(-c3ccc(NC(C)C)cc3)cn2)ccn1` [Example 6, N-isopropyl-4-(1-(2-propylpyridin-4-yl)-1H-pyrazol-4-yl)aniline], the inhibition at 10 µM was more than 75%. On the same count and under the same terms, the value for `CCCc1cccc(-n2cc(-c3ccc(NS(C)(=O)=O)cc3)cn2)c1` [Example 47, N-(4-(1-(3-propylphenyl)-1H-pyrazol-4-yl)phenyl)methanesulfonamide] was 10 to 50%. Turning to `CCCc1cc(-n2cc(-c3ccc(NCC4CC4)cn3)cn2)ccn1` [Example 16, N-(cyclopropylmethyl)-6-(1-(2-propylpyridin-4-yl)-1H-pyrazol-4-yl)pyridin-3-amine], the inhibition at 1 µM fell in the range of 2 to 30% and the inhibition at 10 µM is more than 75%. Consider `CCCc1cc(-n2cc(-c3ccc(NCC(C)C)cc3)cn2)ccn1` [Example 3, N-isobutyl-4-(1-(2-propylpyridin-4-yl)-1H-pyrazol-4-yl)aniline], for which the inhibition at 10 µM was more than 75%. For the molecule `CCCc1cc(-n2nc(C)c(-c3ccc(NS(=O)(=O)C(F)(F)F)nc3)c2C)ccn1` [Example 39, N-(5-(3,5-dimethyl-1-(2-propylpyridin-4-yl)-1H-pyrazol-4-yl)pyridin-2-yl)-1,1,1-trifluoromethanesulfonamide], the inhibition at 1 µM was 2 to 30% and the inhibition at 10 µM was 10 to 50%. As to `CCCc1cc(-n2cc(-c3ccc(NS(=O)(=O)C4CC4)cc3)cn2)ccn1` [Example 1, N-(4-(1-(2-propylpyridin-4-yl)-1H-pyrazol-4-yl)phenyl)cyclopropanesulfonamide], the inhibition at 10 µM is more than 75%.

Take `CCCc1cc(-n2cc(-c3ncc(NS(C)(=O)=O)cc3Cl)cn2)ccn1` [Example 30, N-(5-chloro-6-(1-(2-propylpyridin-4-yl)-1H-pyrazol-4-yl)pyridin-3-yl)methanesulfonamide]: the inhibition at 10 µM is 50 to 75%.

Source of the values: patent US11497738B2, “Di-substituted pyrazole compounds for the treatment of diseases” (FGH BIOTECH, INC., priority 2016, dated 2022).
